Where two headings read alike, the source gives them in different places.
Assays:
[1] = biological target: HCAR3 (Homo sapiens, UniProt P49019); settings: HCAR2 natural ligands on HCAR3; cited from earlier work
[2] = test system: HCAR2; settings: cited from earlier work
[3] = rat, compared to niacin; cited from earlier work
[4] = dog, compared to niacin; cited from earlier work
[5] = biological target: T1, wild-type HCAR2 (Homo sapiens, UniProt Q8TDS4); assay: SPR binding affinity, wild-type receptor
T1 construct: expressed in transfected cells; host or cells: HEK293 cells (ATCC CRL-1573)
T1 sequence (Q8TDS4 whole entry): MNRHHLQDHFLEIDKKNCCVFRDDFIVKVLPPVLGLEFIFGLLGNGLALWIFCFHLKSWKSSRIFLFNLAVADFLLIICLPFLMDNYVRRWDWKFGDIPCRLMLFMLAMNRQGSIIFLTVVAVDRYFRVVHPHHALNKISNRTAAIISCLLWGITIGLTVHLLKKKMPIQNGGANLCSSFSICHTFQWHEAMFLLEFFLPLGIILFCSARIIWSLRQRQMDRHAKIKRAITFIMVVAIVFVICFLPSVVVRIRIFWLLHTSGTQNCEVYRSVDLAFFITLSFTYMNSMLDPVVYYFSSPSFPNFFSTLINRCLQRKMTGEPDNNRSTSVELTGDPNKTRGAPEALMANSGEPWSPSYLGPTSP
Protocol: Varying concentrations of agonist diluted in running buffer were injected as analytes for 100 s, as the period of association. Subsequently, the running buffer was alternatively perfused over the chip to allow the bound agonist to undergo a 50 s period of disassociation. Sensorgrams were recorded in real-time and analyzed in the Biacore X100 system for the calculation of binding affinity (KD).

[6] = test system: HCAR2 mutants at positions 86, 91, 103, 107, 176, and 178; assay: Gi/o-cAMP assay, HCAR2 residues mutated to the allelic residues in HCAR3; type: cell-based, human; settings: six HCAR2 residues mutated to HCAR3 residues
Protocol: (§1) The Gi/o-cAMP assay was performed as follows. […] Data were analyzed with GraphPad Prism 9.0. The experiments were performed in triplicate.

[7] = test system: HCAR3 mutants at positions 86, 91, 103, 107, 176, and 178; assay: Gi/o-cAMP assay, reverse mutations in HCAR3; type: cell-based, human; settings: reverse mutations of the six residues in HCAR3
Protocol: as §1

[8] = test system: HCAR2; set-up: method as in PMID 19349687; settings: HCAR2 agonist; cited from earlier work

Sequence of HCAR3 (P49019 whole entry): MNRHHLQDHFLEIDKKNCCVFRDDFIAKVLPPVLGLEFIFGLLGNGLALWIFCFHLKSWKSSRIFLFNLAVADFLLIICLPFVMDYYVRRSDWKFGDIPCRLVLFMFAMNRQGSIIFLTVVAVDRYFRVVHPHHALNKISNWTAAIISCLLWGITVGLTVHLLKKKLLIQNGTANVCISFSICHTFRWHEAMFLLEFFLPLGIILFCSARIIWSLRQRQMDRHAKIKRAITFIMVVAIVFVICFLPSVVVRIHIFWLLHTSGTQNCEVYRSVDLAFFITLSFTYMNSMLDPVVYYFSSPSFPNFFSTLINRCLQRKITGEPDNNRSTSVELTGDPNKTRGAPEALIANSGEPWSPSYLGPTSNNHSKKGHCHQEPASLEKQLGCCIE

CCCC(=O)O [butyrate]
activity toward HCAR3 [1]: no activity

CCCCCC(O)CC(=O)O (stereo not drawn) [3-hydroxyoctanoic acid]
activation of HCAR2 ([2]; natural ligand of HCAR3 tested on HCAR2): not activated

NC(=O)c1cccnc1 [nicotinamide]
activity toward HCAR2 ([2]; carboxyl group of niacin replaced with an amide group): no longer active

CC(C)(Cc1nc(-c2ccc(O)cn2)no1)C(=O)NC1=C(C(=O)O)CCCC1 [MK-6892]
flushing effect [3]: significantly relieved | flushing effect [4]: significantly relieved

Cc1cnc(C(=O)O)c[n+]1[O-] [acipimox]
Kd [5]: 429 nM | effect of mutations on agonist activity in HCAR2 [6]: markedly reduced | agonistic activity compared to wild-type HCAR3 [7]: increased | EC50 ([2]; agonist of HCAR2): 2.6 to 6 µM

CC(O)CC(=O)O (stereo not drawn) [β-OHB, β-hydroxybutyrate]
activity toward HCAR3 [1]: no activity | potency for HCAR2 relative to butyrate ([2]; endogenous ligands): higher potency

C1Cc2[nH]nc(-c3nn[nH]n3)c2C1 [MK-0354]
β-arrestin activation [8]: weak
